Like-named read-outs stand apart in the source and are kept apart here.
Tests used:
human P450 2C9 [1] = target: T1, human P450 2C9 (Homo sapiens, UniProt P11712); test: Spectral binding titration with purified P450 2C9; settings: concentrations up to 100 µM; results not shown
human P450 3A4 [2] = target: T2, human P450 3A4 (Homo sapiens, UniProt P08684); test: Inhibition of P450 3A4-dependent midazolam 4-hydroxylation
human P450 2C9 [3] = target: T1, human P450 2C9; test: Inhibition of P450 2C9-dependent flurbiprofen 4’-hydroxylation
human P450 2C9 [4] = target: T1, human P450 2C9
human P450 3A4 [5] = target: T2, human P450 3A4; test: Spectral binding titration with purified P450 3A4; settings: for spectral change / Type I binding spectra with P450 3A4, in words: decreases in α and β bands monitored, up to 100 µM
human P450 3A4 [6] = target: T2, human P450 3A4; test: Effect on P450 3A4-catalyzed midazolam 1’-hydroxylation
human P450 1A2 [7] = target: T3, human P450 1A2 (Homo sapiens, UniProt P05177)
T3 sequence (P05177 1-516): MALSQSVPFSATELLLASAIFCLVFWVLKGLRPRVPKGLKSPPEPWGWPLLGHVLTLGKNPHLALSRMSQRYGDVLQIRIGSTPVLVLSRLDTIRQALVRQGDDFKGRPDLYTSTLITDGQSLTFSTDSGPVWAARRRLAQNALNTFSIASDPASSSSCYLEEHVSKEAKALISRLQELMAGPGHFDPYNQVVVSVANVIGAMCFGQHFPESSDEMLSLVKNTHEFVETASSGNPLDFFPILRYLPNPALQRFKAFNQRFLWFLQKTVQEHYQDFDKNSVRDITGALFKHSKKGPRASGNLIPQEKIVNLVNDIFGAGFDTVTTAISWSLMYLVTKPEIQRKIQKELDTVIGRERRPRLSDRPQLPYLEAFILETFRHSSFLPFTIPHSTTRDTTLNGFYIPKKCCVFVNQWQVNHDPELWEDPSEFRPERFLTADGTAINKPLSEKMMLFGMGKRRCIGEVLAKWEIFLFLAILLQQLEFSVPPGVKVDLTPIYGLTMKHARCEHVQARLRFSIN

human P450 1A1 = target: T4, human P450 1A1 (Homo sapiens, UniProt P04798); test: Inhibition of P450 1A1-dependent EROD activity; assay type: biochemical
T4 sequence (P04798 1-512): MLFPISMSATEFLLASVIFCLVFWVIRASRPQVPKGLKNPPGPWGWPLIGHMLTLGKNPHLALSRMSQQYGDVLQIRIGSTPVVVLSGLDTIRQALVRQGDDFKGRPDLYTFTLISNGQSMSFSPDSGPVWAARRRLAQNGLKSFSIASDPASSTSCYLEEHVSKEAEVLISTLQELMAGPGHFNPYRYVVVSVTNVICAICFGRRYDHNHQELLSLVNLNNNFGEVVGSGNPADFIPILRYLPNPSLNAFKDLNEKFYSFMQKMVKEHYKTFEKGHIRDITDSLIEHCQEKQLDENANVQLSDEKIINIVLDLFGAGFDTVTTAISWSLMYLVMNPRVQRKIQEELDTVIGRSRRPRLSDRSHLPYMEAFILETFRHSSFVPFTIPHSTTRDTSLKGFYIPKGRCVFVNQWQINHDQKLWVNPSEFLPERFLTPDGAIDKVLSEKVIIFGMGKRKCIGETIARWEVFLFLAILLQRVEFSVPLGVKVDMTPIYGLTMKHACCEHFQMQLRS

human P450 1B1 [8] = target: T5, human P450 1B1 (Homo sapiens, UniProt Q16678); test: Inhibition of P450 1B1-dependent EROD activity; assay type: biochemical
T5 sequence (Q16678 1-543): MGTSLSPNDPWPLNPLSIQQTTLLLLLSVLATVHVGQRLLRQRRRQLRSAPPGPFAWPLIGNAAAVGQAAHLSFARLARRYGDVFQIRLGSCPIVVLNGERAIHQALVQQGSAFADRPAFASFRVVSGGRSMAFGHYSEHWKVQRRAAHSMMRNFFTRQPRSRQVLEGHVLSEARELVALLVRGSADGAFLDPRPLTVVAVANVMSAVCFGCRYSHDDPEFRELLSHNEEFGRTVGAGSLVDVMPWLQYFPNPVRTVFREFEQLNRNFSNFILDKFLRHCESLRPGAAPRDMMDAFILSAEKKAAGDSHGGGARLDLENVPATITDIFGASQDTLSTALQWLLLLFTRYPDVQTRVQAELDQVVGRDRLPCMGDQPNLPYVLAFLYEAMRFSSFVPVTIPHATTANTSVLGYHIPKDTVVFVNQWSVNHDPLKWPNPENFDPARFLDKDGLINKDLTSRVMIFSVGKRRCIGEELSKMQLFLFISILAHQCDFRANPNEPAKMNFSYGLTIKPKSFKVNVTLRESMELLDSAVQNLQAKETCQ

human P450 1A2 [9] = target: T3, human P450 1A2; test: Inhibition of P450 1A2-dependent EROD activity
human P450 1B1 [10] = target: T5, human P450 1B1; test: Spectral binding titration with purified P450 1B1

T1 sequence (P11712 whole entry): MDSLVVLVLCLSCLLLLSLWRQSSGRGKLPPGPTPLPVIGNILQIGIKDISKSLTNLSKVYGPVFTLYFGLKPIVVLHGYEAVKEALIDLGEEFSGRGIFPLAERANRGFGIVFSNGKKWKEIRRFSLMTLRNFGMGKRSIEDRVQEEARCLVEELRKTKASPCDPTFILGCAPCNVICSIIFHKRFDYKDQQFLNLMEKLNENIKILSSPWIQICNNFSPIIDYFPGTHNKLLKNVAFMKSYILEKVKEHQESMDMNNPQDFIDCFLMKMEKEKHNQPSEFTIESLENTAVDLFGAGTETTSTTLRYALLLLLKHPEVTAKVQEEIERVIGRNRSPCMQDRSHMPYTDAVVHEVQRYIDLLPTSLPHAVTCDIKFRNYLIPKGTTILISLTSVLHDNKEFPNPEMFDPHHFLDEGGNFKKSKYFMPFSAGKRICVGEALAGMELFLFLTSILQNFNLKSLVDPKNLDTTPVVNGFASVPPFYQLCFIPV
T2 sequence (P08684 whole entry): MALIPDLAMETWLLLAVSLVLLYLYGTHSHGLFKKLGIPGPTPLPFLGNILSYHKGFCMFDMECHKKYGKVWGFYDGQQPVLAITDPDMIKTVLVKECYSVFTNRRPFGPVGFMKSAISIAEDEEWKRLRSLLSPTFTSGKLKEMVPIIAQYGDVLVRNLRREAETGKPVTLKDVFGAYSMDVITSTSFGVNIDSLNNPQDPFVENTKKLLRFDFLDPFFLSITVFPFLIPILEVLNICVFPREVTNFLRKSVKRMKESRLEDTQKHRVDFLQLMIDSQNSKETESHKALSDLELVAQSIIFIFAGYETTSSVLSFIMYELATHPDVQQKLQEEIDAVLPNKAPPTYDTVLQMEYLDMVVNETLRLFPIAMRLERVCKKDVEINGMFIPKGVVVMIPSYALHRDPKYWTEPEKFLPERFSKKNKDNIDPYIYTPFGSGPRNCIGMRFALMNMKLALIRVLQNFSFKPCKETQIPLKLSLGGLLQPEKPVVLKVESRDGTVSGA

`O=c1cc(-c2ccccc2)oc2cc(O)ccc12` [7HF, 7-hydroxyflavone] was tested, and the “spectral changes with P450 2C9, in words” value (human P450 2C9 [1]) was “did not induce spectral changes”, the IC50 (human P450 3A4 [2]) was over 100 µM and the “inhibition of P450 2C9 flurbiprofen 4’-hydroxylation, in words” value (human P450 2C9 [3]) was “strong inhibitors”.
In the case of `O=c1c(O)c(-c2ccc(O)cc2)oc2cc(O)cc(O)c12` [34’57TetraHF, 3,4’,5,7-tetrahydroxyflavone], the “spectral changes with P450 2C9, in words” value (human P450 2C9 [1]) is reported as “did not induce spectral changes”.
For `O=c1cc(-c2ccccc2)oc2cc(O)cc(O)c12` [57DHF, 5,7-dihydroxyflavone], the “inhibition of P450 2C9 flurbiprofen 4’-hydroxylation, in words” value (human P450 2C9 [4]) was “strong inhibitors” and the IC50 (human P450 2C9 [3]) was 0.8 ± 0.14 µM.
With `O=c1c(O)c(-c2ccccc2)oc2cc(O)cc(O)c12` [357THF, 3,5,7-trihydroxyflavone] the “spectral change / Type I binding spectra with P450 3A4, in words” value (human P450 3A4 [5]) was “induced spectral changes”, the “spectral changes with P450 2C9, in words” value (human P450 2C9 [1]) was “did not induce spectral changes” and the “effect on formation of 1’-hydroxymidazolam by P450 3A4, in words” value (human P450 3A4 [6]) was “slightly activated”. For the same compound, the IC50 (human P450 3A4 [2]) was 2.3 ± 0.3 µM, the “inhibition of P450 3A4 midazolam 4-hydroxylation, in words” value (human P450 3A4 [2]) was “significantly inhibited” and the IC50 (human P450 2C9 [3]) was 0.2 ± 0.03 µM. The “inhibition of P450 2C9 flurbiprofen 4’-hydroxylation, in words” value (human P450 2C9 [3]) was “strong inhibitors”.
`C#CCOc1ccccc1-c1cc(=O)c2ccc3ccccc3c2o1` [ANF2’PE, α-naphthoflavone 2’-propargyl ether] showed an IC50 (human P450 1A2 [7]) of 0.24 µM.
In the case of `C#CCOc1ccc(-c2cc(=O)c3ccc4ccccc4c3o2)cc1` [ANF4’PE, α-naphthoflavone 4’-propargyl ether], the IC50 (human P450 1A2 [7]) is reported as 0.1 µM.
`O=c1cc(-c2ccccc2)oc2c1ccc1ccccc12` [ANF, α-naphthoflavone] was tested, and the “inhibition of P450 1A1 EROD, in words” value (human P450 1A1) was “strongly inhibited”, the “spectral changes with P450 2C9, in words” value (human P450 2C9 [1]) was “did not induce spectral changes” and the IC50 (human P450 3A4 [2]) was 18 µM.
`C#CCOc1ccccc1-c1cc(=O)c2c(ccc3ccccc32)o1` [BNF2’PE, β–naphthoflavone 2’-propargyl ether] was tested, and the “inhibition of P450 1A2 EROD, in words” value (human P450 1A2 [7]) was “only weakly”.
With `C#CCOc1ccc(-c2cc(=O)c3c(ccc4ccccc43)o2)cc1` [BNF4’PE, β–naphthoflavone 4’-propargyl ether] the “inhibition of P450 1A2 EROD, in words” value (human P450 1A2 [7]) was “only weakly”.
For `O=c1cc(-c2ccccc2)oc2ccc3ccccc3c12` [BNF, β–naphthoflavone], the IC50 (human P450 1B1 [8]) was 0.017 µM, the “inhibition of P450 1A1 EROD, in words” value (human P450 1A1) was “strongly inhibited” and the “inhibition of P450 1A2 EROD, in words” value (human P450 1A2 [9]) was “only weakly”. The “spectral changes with P450 2C9, in words” value (human P450 2C9 [1]) was “did not induce spectral changes” and the “inhibition of P450 3A4 midazolam 4-hydroxylation, in words” value (human P450 3A4 [2]) was “not active inhibitors”.
`O=c1cc(-c2ccccc2)oc2ccccc12` [flavone] was tested, and the IC50 (human P450 1A1) was 0.98 ± 0.21 µM, the “binding spectra with P450 1B1, in words” value (human P450 1B1 [10]) was “Reverse Type I binding spectra” and the IC50 (human P450 1A2 [9]) was 0.13 ± 0.03 µM. The “spectral change / Type I binding spectra with P450 3A4, in words” value (human P450 3A4 [5]) was “Type I spectral change”, the “ΔAmax, P450 3A4, from difference spectra (Soret band)” value (human P450 3A4 [5]; purified P450 3A4) was 0.12 ± 0.02 and the “spectral changes with P450 2C9, in words” value (human P450 2C9 [1]) was “did not induce spectral changes”. For the same compound, the “effect on formation of 1’-hydroxymidazolam by P450 3A4, in words” value (human P450 3A4 [6]) was “enhanced the formation of 1’-hydroxymidazolam”, the “inhibition of P450 3A4 midazolam 4-hydroxylation, in words” value (human P450 3A4 [2]) was “inhibited the formation of 4-hydroxymidazolam” and the IC50 (human P450 2C9 [3]) was 14 ± 1.2 µM.
With `CC(C(=O)O)c1ccc(-c2ccccc2)c(F)c1` (centres unmarked) [flurbiprofen] the “spectral changes with P450 2C9, in words” value (human P450 2C9 [1]) was “Type I spectra”.

— PMC3072440 (Chemical research in toxicology, 2010)
